The assay deals with HPRT1. In words: Pooled positive selection hgRNA screen for resistance to 6-thioguanine. It counts as cell-based, human. Particulars: 6-TG treated cells.

Procedure: Lentiviral-based positive selection pooled hgRNA screens were performed, and the human HPRT1 and TK1 genes were targeted using guide pairs that either target within exonic regions, which are expected to result in gene knockout, or intronic loci flanking constitutive exons in these genes, which are expected to result in exon deletion (FIG. 1D). All of the exon-flanking hgRNAs in the library were designed to introduce double-strand DNA breaks at intronic sites that are at least 100 bps distal from splice sites flanking the target exons.
At T18 15 million cells were collected for genomic DNA extraction, and hgRNA expression cassettes were amplified and subjected to high-throughput sequencing as described below.

With `Nc1nc2nc[nH]c2c(=S)[nH]1` [6-TG, 6-thioguanine], the “library constructs undetectable when cells were treated with 6-TG” value came to 95.8%.

For the origin of these results see patent US20220348910A1, “METHODS AND COMPOSITIONS FOR MULTIPLEX GENE EDITING” (THE GOVERNING COUNCIL OF THE UNIVERSITY OF TORONTO, priority 2019, published 2022).
